For experiment [1], the system named is APP/PS1 mouse model of AD. Conditions: weekly administration regimen; cited from earlier work.
The next experiment deals with 5XFAD AD-Tg mice. In words: GFAP immunostaining (hippocampal astrogliosis) in 5XFAD AD-Tg mice. The format is in vivo, mouse. The following applies: AD-Tg/Foxp3-DTR+ mice, 3 weeks after last DTx injection. On the procedure: Tissue processing and immunohistochemistry were performed on paraffin embedded sectioned mouse (6 μm thick) and human (10 μm thick) brains. For human ICAM-1 staining, primary mouse anti-ICAM (1:20 Abcam; ab2213) antibody was used. Slides were incubated for 10 min with 3% H2O2, and a secondary biotin-conjugated anti-mouse antibody was used, followed by biotin/avidin amplification with Vectastain ABC kit (Vector Laboratories). Subsequently, 3,3′-diaminobenzidine (DAB substrate) (Zytomed kit) was applied; slides were dehydrated and mounted with xylene-based mounting solution. For tissue stainings, mice were transcardially perfused with PBS prior to tissue excision and fixation. CP tissues were isolated under a dissecting microscope (Stemi DV4; Zeiss) from the lateral, third, and fourth ventricles of the brain. […] Microscopic analysis, was performed using a fluorescence microscope (E800; Nikon) or laser-scanning confocal microscope (Carl Zeiss, Inc.). The fluorescence microscope was equipped with a digital camera (DXM 1200F; Nikon), and with either a 20×NA 0.50 or 40×NA 0.75 objective lens (Plan Fluor; Nikon). […] For quantification of staining intensity, total cell and background staining was measured using ImageJ software (NIH), and intensity of specific staining was calculated, as previously described (Burgess et al, 2010). […]

“Also recorded” adds a separate entry of the source.

Consider Glatiramer acetate [GA], for which the “effect in the APP/PS1 mouse model of AD” value in experiment [1] is listed as “therapeutic effect”.
On to Diphtheria toxin [DTx], for which the “hippocampal gliosis (GFAP immunostaining)” value in the experiment with 5XFAD AD-Tg mice is “reduced astrogliosis; also recorded: reduction in hippocampal gliosis”.

(Values after patent publication US11492405B2, “Reducing systemic regulatory t cell levels or activity for treatment of disease and injury of the CNS” (Yeda Research and Development Co. Ltd, priority 2014, dated 2022).)
